According to patent US9611251B2, “Substituted piperidine compounds and their use as orexin receptor modulators” (Janssen Pharmaceutica NV, priority 2013, dated 2017):

Tests used:
rat orexin 1 receptor = rat orexin 1 receptor (Rattus norvegicus, UniProt P56718); assay: Rat orexin 1 receptor radioligand binding; conditions: rat orexin 1 receptor radioligand binding; averages of 2-20 runs; read-out: rOX1 Ki
Outline: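 Cell-suspension competition binding used 4 nM final tritiated thiazolyl-pyrrolidinyl-methanone radioligand in PBS, ≤0.1% DMSO, with 10 µM almorexant defining nonspecific binding. Filter-bound radioactivity was counted in triplicate. IC50 came from one-site competition fits and was converted to Ki using the predetermined Kd.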

human orexin 1 receptor = human orexin 1 receptor (Homo sapiens, UniProt O43613); assay: Human orexin 1 receptor radioligand binding; conditions: human orexin 1 receptor radioligand binding; averages of 2-20 runs; read-out: hOX1 Ki
Protocol: The in vitro affinity of the compounds of the invention for the rat/human orexin 1 and human orexin 2 receptors was determined by competitive radioligand binding using [^3H](1-(5-(2-fluoro-phenyl)-2-methyl-thiazol-4-yl)-1-((S)-2-(5-phenyl-(1,3,4)oxadiazol-2-ylmethyl)-pyrrolidin-1-yl)-methanone) (Langmead et al., 2004) and [^3H]EMPA (n-ethyl-2[96-methoxypyridin-3-yl)-(toluene-2-sulfonyl)-amino]-N-pyridin-3-ylmethyl acetamide), respectively (Langmead et al., 2004, British Journal of Pharmacology 141:340-346; Malherbe et al., 2004, British Journal of Pharmacology 156:1326-41).
Data are analyzed using pc-Sandy macro and graphed on Graphpad Prism 5. For analysis, each concentration point is averaged from triplicate values and the averaged values are plotted on Graphpad Prism. The IC50 was determined by applying the following equation (GraphPad Prism 5.0, SanDiego) for one site competition where X=log (concentration) and Y=specific binding. Top denotes the total [^3H]-(1-(5-(2-fluoro-phenyl)-2-methyl-thiazol-4-yl)-1-((S)-2-(5-phenyl-(1,3,4)oxadiazol-2-ylmethyl)-pyrrolidin-1-yl)-methanone) binding, bottom denotes the nonspecific [^3H]-(1-(5-(2-fluoro-phenyl)-2-methyl-thiazol-4-yl)-1-((S)-2-(5-phenyl-(1,3,4)oxadiazol-2-ylmethyl)-pyrrolidin-1-yl)-methanone) binding. Graphpad Prism calculates Ki value from IC50 and the pre-determined Kd values for [^3H]-(1-(5-(2-fluoro-phenyl)-2-methyl-thiazol-4-yl)-1-((S)-2-(5-phenyl-(1,3,4)oxadiazol-2-ylmethyl)-pyrrolidin-1-yl)-methanone) and [3H]-EMPA. The Ki for each compound is then uploaded into 3DX. Each run comprises individual compounds in triplicate.
Rat and Human Orexin 1 Receptor Radioligand Binding Studies
Human Embryonic Kidney 293 cells (HEK293) stably expressing rat orexin 1 receptor (Genebank accession number NM_001525) or Chinese ovary cells (CHO) stably expressing human orexin 1 receptor (Genebank accession number NM_001526) were grown to confluency in DMEM (Hyclone, cat #SH30022), 10% FBS, 1×Pen/Strep, 1× sodium pyruvate, 10 mM HEPES, 600 μg/mL G418 and DMEM/F12 (Gibco, Cat #11039), 10% FBS, 1×Pen/Strep, 600 μg/mL G418 media, respectively on 150 cm^2 tissue culture plates, washed with 5 mM EDTA in PBS (HyClone Dulbecco's Phosphate Buffered Saline 1× with Calcium and Magnesium, Cat #SH30264.01, hereafter referred to simply as PBS) and scraped into 50 ml tubes. After centrifugation (2K×G, 5 min at 4° C.), the supernatant was aspirated and the pellets frozen and stored at −80° C. Cells were resuspended in PBS in the presence of 1 tablet of protease inhibitor cocktail (Roche, Cat. #11836145001) per 50 mL. Each cell pellet from a 15 cm plate was resuspended in 10 mL, stored on ice, and homogenized for 45 sec prior to addition to the reactions. Competition binding experiments in 96 well polypropylene plates were performed using [^3H]-(1-(5-(2-fluoro-phenyl)-2-methyl-thiazol-4-yl)-1-((S)-2-(5-phenyl-(1,3,4)oxadiazol-2-ylmethyl)-pyrrolidin-1-yl)-methanone) (Moraveck Corporation, specific activity=35.3 Ci/mmol), diluted to a 10 nM concentration in PBS (4 nM final). […] The final concentration of DMSO in the reactions is equal to or less than 0.1%. Total and nonspecific binding was determined in the absence and presence of 10 μM almorexant. The total volume of each reaction is 200 μL (20 μL of diluted compounds, 80 μL of [^3H]-(1-(5-(2-fluoro-phenyl)-2-methyl-thiazol-4-yl)-1-((S)-2-(5-phenyl-(1,3,4)oxadiazol-2-ylmethyl)-pyrrolidin-1-yl)-methanone) diluted in PBS and 100 μL of the cell suspension). Reactions were run for 60 min at room temperature and terminated by filtration through GF/C filter plates (PerkinElmer, Cat. #6005174) presoaked in 0.3% polyethylenimine using the cell harvester (PerkinElmer Filtermate). The plates were washed 3 times by aspirating 30 ml PBS through the plates. Plates were dried in 55° C. oven for 60 min, scintillation fluid was added, and the radioactivity was counted on a Topcount (Packard).

human orexin 2 receptor = human orexin 2 receptor (Homo sapiens (Human), UniProt O43614); assay: Human orexin 2 receptor radioligand binding ([3H]-EMPA); conditions: averages of 2-20 runs, read-out: hOX2 Ki
Outline: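 Competition binding using homogenized HEK293 cells stably expressing human orexin 2 receptor, [3H]-EMPA at 2 nM final and ≤0.1% DMSO; nonspecific binding set with 10 μM almorexant. Filter-bound radioactivity counted by scintillation; one-site competition IC50 converted to Ki using pre-determined Kd, compounds run in triplicate.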

human orexin 2 receptor, sequence (O43614 whole entry): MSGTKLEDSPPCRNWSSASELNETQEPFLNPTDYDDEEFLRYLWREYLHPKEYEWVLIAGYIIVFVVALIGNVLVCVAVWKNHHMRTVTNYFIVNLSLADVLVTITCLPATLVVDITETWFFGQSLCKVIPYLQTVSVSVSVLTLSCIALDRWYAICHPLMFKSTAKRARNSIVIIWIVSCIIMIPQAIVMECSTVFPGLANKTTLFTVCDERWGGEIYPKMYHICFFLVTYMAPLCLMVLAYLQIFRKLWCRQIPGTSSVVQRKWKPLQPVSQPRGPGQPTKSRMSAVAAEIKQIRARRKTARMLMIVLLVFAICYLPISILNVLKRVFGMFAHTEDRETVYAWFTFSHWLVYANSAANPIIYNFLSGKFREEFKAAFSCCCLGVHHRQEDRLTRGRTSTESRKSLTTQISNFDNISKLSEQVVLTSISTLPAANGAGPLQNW

Ki (rat orexin 1 receptor)	Ki (human orexin 1 receptor)	Ki (human orexin 2 receptor)	SMILES
226 nM	395 nM	3200 nM	C[C@H]1[C@H](Oc2ncc(Cl)cn2)CCCN1C(=O)c1cccc(F)c1-n1nccn1 [Example 161, ((2S,3R)-3-((5-chloropyrimidin-2-yl)oxy)-2-methylpiperidin-1-yl)(3-fluoro-2-(2H-1,2,3-triazol-2-yl)phenyl)methanone]
32 nM	44 nM	533 nM	C[C@H]1[C@H](Oc2ncc(C(F)(F)F)cc2F)CCCN1C(=O)c1cc(F)ccc1-c1ncccn1 [Example 221, (5-fluoro-2-(pyrimidin-2-yl)phenyl)((2S,3R)-3-((3-fluoro-5-(trifluoromethyl)pyridin-2-yl)oxy)-2-methylpiperidin-1-yl)methanone]
20 nM	18 nM	544 nM	C[C@H]1[C@H](Oc2ccc(C(F)(F)F)cn2)CCCN1C(=O)c1cc(F)ccc1-c1ncccn1 [Example 138, (5-fluoro-2-(pyrimidin-2-yl)phenyl)((2S,3R)-2-methyl-3-((5-(trifluoromethyl)pyridin-2-yl)oxy)piperidin-1-yl)methanone]
35 nM	45 nM	370 nM	Cc1ccc(-c2ncccn2)c(C(=O)N2CCC[C@@H](Oc3ncc(C(F)(F)F)cc3F)[C@@H]2C)n1 [Example 223, ((2S,3R)-3-((3-fluoro-5-(trifluoromethyl)pyridin-2-yl)oxy)-2-methylpiperidin-1-yl)(6-methyl-3-(pyrimidin-2-yl)pyridin-2-yl)methanone]
30 nM	28 nM	1800 nM	Cc1cccc(C(=O)N2CCC[C@@H](Oc3ncc(C(F)(F)F)cn3)[C@@H]2C)c1-c1ncccn1 [Example 167, (3-methyl-2-(pyrimidin-2-yl)phenyl)((2S,3R)-2-methyl-3-((5-(trifluoromethyl)pyrimidin-2-yl)oxy)piperidin-1-yl)methanone]
51 nM	51 nM	1200 nM	C[C@H]1[C@H](Oc2ccc(C(F)(F)F)cn2)CCCN1C(=O)c1ccc(F)cc1-c1ncccn1 [Example 139, (4-fluoro-2-(pyrimidin-2-yl)phenyl)((2S,3R)-2-methyl-3-((5-(trifluoromethyl)pyridin-2-yl)oxy)piperidin-1-yl)methanone]
34 nM	38 nM	2300 nM	Cc1ccc(-n2nccn2)c(C(=O)N2CCC[C@@H](Oc3cnc(C(F)(F)F)cn3)[C@@H]2C)n1 [Example 107, ((2S,3R)-2-methyl-3-((5-(trifluoromethyl)pyrazin-2-yl)oxy)piperidin-1-yl)(6-methyl-3-(2H-1,2,3-triazol-2-yl)pyridin-2-yl)methanone]

Second part, the molecule before the results:

SMILES	Ki (rat orexin 1 receptor)	Ki (human orexin 1 receptor)	Ki (human orexin 2 receptor)
C[C@H]1[C@H](Oc2ccc(C(F)(F)F)cn2)CCCN1C(=O)c1ccccc1-n1nccn1 [Example 110, (2-(2H-1,2,3-triazol-2-yl)phenyl)((2S,3R)-2-methyl-3-((5-(trifluoromethyl)pyridin-2-yl)oxy)piperidin-1-yl)methanone]	12 nM	11 nM	246 nM
Cc1ccc(-c2ncccn2)c(C(=O)N2CCC[C@@H](Oc3ccc(C(F)(F)F)cn3)[C@@H]2C)n1 [Example 213, ((2S,3R)-2-methyl-3-((5-(trifluoromethyl)pyridin-2-yl)oxy)piperidin-1-yl)(6-methyl-3-(pyrimidin-2-yl)pyridin-2-yl)methanone]	23 nM	68 nM	217 nM
C[C@H]1[C@H](Oc2ncc(C(F)(F)F)cc2F)CCCN1C(=O)c1ccccc1-n1nccn1 [Example 224, (2-(2H-1,2,3-triazol-2-yl)phenyl)((2S,3R)-3-((3-fluoro-5-(trifluoromethyl)pyridin-2-yl)oxy)-2-methylpiperidin-1-yl)methanone]	33 nM	47 nM	576 nM
C[C@H]1[C@H](Nc2cnc(C(F)(F)F)cn2)CCCN1C(=O)c1ccc(F)cc1-c1ncccn1 (relative stereo) [Example 209, (4-fluoro-2-(pyrimidin-2-yl)phenyl)((2S*,3R*)-2-methyl-3-((5-(trifluoromethyl)pyrazin-2-yl)amino)piperidin-1-yl)methanone]	16 nM	25 nM	944 nM
Cc1ccc(-n2nccn2)c(C(=O)N2CCC[C@@H](Oc3ncc(Cl)cn3)[C@@H]2C)n1 [Example 164, ((2S,3R)-3-((5-chloropyrimidin-2-yl)oxy)-2-methylpiperidin-1-yl)(6-methyl-3-(2H-1,2,3-triazol-2-yl)pyridin-2-yl)methanone]	144 nM	230 nM	3800 nM
Cc1ccc(C(=O)N2CCC[C@@H](Oc3ccc(C(F)(F)F)cn3)[C@@H]2C)c(-n2nccn2)c1 [Example 112, (4-methyl-2-(2H-1,2,3-triazol-2-yl)phenyl)((2S,3R)-2-methyl-3-((5-(trifluoromethyl)pyridin-2-yl)oxy)piperidin-1-yl)methanone]	7 nM	11 nM	664 nM
Cc1cnc(-c2ncccn2)c(C(=O)N2CCC[C@@H](Oc3ccc(Cl)cn3)[C@@H]2C)c1 [Example 217, ((2S,3R)-3-((5-chloropyridin-2-yl)oxy)-2-methylpiperidin-1-yl)(5-methyl-2-(pyrimidin-2-yl)pyridin-3-yl)methanone]	177 nM	154 nM	8900 nM
C[C@H]1[C@H](Oc2ncc(C(F)(F)F)cc2F)CCCN1C(=O)c1cccc(F)c1-n1nccn1 [Example 159, (3-fluoro-2-(2H-1,2,3-triazol-2-yl)phenyl)((2S,3R)-3-((3-fluoro-5-(trifluoromethyl)pyridin-2-yl)oxy)-2-methylpiperidin-1-yl)methanone]	60 nM	14 nM	1550 nM
Cc1cnc(C(=O)N2CCC[C@@H](Nc3ccc(Cl)cn3)[C@@H]2C)c(-c2ncco2)c1 [Example 77, ((2S,3R)-3-((5-chloropyridin-2-yl)amino)-2-methylpiperidin-1-yl)(5-methyl-3-(oxazol-2-yl)pyridin-2-yl)methanone]	41 nM	60 nM	4230 nM
Cc1cnc(C(=O)N2CCC[C@@H](Nc3ccc(C(F)(F)F)cn3)[C@@H]2C)c(-n2nccn2)c1 [Example 26, ((2S,3R)-2-methyl-3-((5-(trifluoromethyl)pyridin-2-yl)amino)piperidin-1-yl)(5-methyl-3-(2H-1,2,3-triazol-2-yl)pyridin-2-yl)methanone]	12 nM	16 nM	2370 nM
